Measured values from patent US4835161A, “Anti-histaminic compositions containing n-heterocyclyl-4-piperidinamines” (Janssen Pharmaceutica N.V., priority 1987, dated 1989).

These molecules were tested on compound 48/80-induced lethality (assay: Protection of rats from compound 48/80-induced lethality). Conditions: Rattus norvegicus; subcutaneous or oral; 1 h before compound 48/80 0.5 mg/kg i.v.; survival after 4 h; dose protecting 50% of animals; read-out: compound 48/80 lethality test in rats-ED50.
Assay type: in vivo, rat (male, inbred Wistar strain)
Protocol: Protection of rats from compound 48/80-induced lethality
The protection from compound 48/80-induced lethal circulatory collapse appears to be a simple way of evaluating quantitatively the antihistaminic activity of test compounds. Male rats of an inbred Wistar strain, weighing 240-260 g were used in the experiment. After overnight starvation the rats were transferred to conditioned laboratories (temp.=21±1° C., relative humidity=65±5%). The rats were treated subcutaneously or orally with a test compound or with the solvent (NaCl solution, 0.9%). One hour after treatment there was injected intravenously compound 48/80, freshly dissolved in water, at a dose of 0.5 mg/kg (0.2 ml/100 g of body weight). […] Survival after 4 hours is therefore considered to be a safe criterion of a protective effect of drug administration. Said ED50 -values are the values in mg/kg body weight at which the tested compounds protect 50% of the tested animals against compound 48/80-induced lethality.

Q: How did the ED50 turn out when Fc1ccc(Cn2c(NC3CCNCC3)nc3cccnc32)cc1 [compound 123] was run?
A: The ED50 was 0.08 mg/kg.

Q: Which ED50 does the source give for Fc1ccc(Cn2c(NC3CCNCC3)nc3ncccc32)cc1 [compound 135] here?
A: The ED50 was 0.01 mg/kg.

Q: For c1coc(Cn2c(NC3CCNCC3)nc3cccnc32)c1 [compound 140, 3-(2-furanylmethyl)-N-(4-piperidinyl)-3H-imidazo[4,5-b]pyridin-2-amine], which ED50 is on record?
A: The ED50 was 0.08 mg/kg.

Q: Which ED50 does the source give for Cc1ccc(Cn2c(NC3CCNCC3)nc3cccnc32)o1 [compound 166, 3-[(5-methyl-2-furanyl)methyl]-N-(4-piperidinyl)-3H-imidazo[4,5-b]pyridin-2-amine] here?
A: Its ED50 is 0.04 mg/kg.
